Calls of active or inactive are those of the source.
Columns and labels:
[1] = molecular target: T1, Short transient receptor potential channel 4 (Mus musculus, UniProt Q9QUQ5); experiment: mouse TRPC4 channel activators, dose response, cell-based, HEK293 TRPC4/mu-opioid, Fluo-4 calcium (AID 434937); format: functional
T1 sequence (Q9QUQ5 whole entry): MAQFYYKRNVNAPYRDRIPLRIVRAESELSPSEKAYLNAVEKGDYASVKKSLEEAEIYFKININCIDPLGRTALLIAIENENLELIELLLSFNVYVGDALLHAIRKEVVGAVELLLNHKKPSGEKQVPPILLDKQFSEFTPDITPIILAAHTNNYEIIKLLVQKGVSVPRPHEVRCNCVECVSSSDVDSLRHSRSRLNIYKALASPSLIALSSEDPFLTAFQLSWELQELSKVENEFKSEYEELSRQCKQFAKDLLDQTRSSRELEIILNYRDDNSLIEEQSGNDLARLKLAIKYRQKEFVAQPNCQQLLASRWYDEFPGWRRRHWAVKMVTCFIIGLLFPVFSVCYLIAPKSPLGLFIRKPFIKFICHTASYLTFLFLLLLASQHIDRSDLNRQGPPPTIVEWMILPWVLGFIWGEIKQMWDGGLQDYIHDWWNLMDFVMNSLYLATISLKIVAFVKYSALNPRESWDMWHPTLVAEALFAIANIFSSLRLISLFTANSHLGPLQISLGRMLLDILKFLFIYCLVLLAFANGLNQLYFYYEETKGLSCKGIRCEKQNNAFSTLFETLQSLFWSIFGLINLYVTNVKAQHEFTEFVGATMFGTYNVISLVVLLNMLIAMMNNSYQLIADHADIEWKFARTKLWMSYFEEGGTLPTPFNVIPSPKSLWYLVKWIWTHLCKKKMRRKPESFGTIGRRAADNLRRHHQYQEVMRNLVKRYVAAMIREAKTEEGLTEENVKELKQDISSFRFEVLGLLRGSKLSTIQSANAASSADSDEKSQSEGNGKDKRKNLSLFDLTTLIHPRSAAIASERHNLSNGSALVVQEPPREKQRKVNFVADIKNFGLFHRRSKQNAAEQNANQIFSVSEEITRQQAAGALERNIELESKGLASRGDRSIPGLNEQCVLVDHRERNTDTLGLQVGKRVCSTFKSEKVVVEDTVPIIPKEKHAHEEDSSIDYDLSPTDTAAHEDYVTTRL

[2] = molecular target: Delta-type opioid receptor (Homo sapiens, UniProt P41143); experiment: Counterscreen for agonists of heterodimerization of the mu 1 (OPRM1) and delta 1 (OPRD1) opioid receptors: Luminescence-based cell-based high throughput dose response assay to identify agonists of OPRD1 homodimerization. [Related pubchem assays (depositor defined):AID504326, AID504355, AID504692, AID504904, AID504905]; format: functional
Mu-type opioid receptor = Mu-type opioid receptor (Homo sapiens, UniProt P35372); experiment: Counterscreen for agonists of heterodimerization of the mu 1 (OPRM1) and delta 1 (OPRD1) opioid receptors: Luminescence-based cell-based high throughput dose response assay to identify agonists of OPRM1 homodimerization.; format: functional;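 further: U2OS cells expressing OPRM1 and beta-arrestin as split beta-galactosidase partners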
[3] = molecular target: 5-hydroxytryptamine receptor 5A (Homo sapiens, UniProt P47898); experiment: Counterscreen for agonists of OPRM1-OPRD1 heterodimerization: luminescence-based cell-based high throughput dose response assay to identify agonists of 5-hydroxytryptamine (serotonin) 5A receptor (HTR5A). [Related pubchem assays (depositor defined):AID504326, AID504355, AID504692, AID504904, AID504905]; format: functional
[4] = Luminescence Cell-Based Dose Confirmation HTS to Identify Activators of 5'UTR Stem-Loop Driven Alpha-Synuclein mRNA Translation in H4 Neuroglioblastoma Cells. [Related pubchem assays: 1829 (Project Summary), 1814 (Primary HTS)]; format: functional
A-375 = experiment: MITF: Counter assay: A375 proliferation Measured in Cell-Based System Using Plate Reader - 2084-03_Inhibitor_Dose_DryPowder_Activity. [Related pubchem assays (depositor defined):AID488944]; format: functional; conditions: Homo sapiens
[5] = A Cell Based Secondary Assay To Explore Cytotoxicity of Compounds that Sensitize Mycobacterium Tuberculosis to Beta-Lactam Antibiotics.; format: functional
[6] = molecular target: T2, Microphthalmia-associated transcription factor (Homo sapiens, UniProt O75030); experiment: TRPM1 promoter luciferase signal decrease, dose response, MITF inhibitor project, cell-based, SK-MEL-5, cherry-picked, set 3 (AID 493073); format: functional
T2 sequence (O75030 whole entry): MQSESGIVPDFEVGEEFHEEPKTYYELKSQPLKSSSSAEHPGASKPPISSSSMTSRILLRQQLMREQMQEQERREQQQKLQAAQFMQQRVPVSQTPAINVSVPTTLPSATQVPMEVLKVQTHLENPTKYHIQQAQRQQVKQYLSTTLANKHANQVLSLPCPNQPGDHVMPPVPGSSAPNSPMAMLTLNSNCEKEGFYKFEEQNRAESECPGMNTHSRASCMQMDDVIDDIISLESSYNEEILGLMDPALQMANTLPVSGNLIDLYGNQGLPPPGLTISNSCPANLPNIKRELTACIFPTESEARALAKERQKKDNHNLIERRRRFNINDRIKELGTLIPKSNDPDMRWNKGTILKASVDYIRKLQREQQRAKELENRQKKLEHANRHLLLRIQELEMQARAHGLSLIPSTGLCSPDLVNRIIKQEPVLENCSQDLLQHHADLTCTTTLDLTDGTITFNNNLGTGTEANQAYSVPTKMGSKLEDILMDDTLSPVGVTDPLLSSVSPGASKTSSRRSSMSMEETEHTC

H4 = experiment: Luminescence Cell-Based Dose Response HTS to Identify Activators of 5'UTR Stem-Loop Driven Prion Protein mRNA Translation in H4 Neuroglioblastoma Cells. [Related pubchem assays: 1829 (Project Summary), 1814 (Primary HTS)]; format: functional; conditions: Homo sapiens
[7] = inhibitors of SNCA 5'UTR-driven translation, confirmation, luminescence, H4 neuroglioblastoma cells, dose confirmation (AID 2454); format: functional, cell-based;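 further: H4 neuroglioblastoma cells carrying an alpha-synuclein 5'UTR luciferase reporter; potency for inhibition of the luciferase signal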
[8] = A549 cell cytotoxicity, dose response, cytotoxicity control, plate reader, cherry-pick, antagonist series (AID 743412); format: functional, cell-based
cells = format: functional, cell-based
[9] = HepG2 cell cytotoxicity, dose response, cytotoxicity control, plate reader, cherry-pick, antagonist series (AID 743416); format: functional, cell-based
[10] = MC4R antagonists, dose response, counter-screen for LGR2 antagonist project, cell-based, plate reader, cherry pick (AID 743444); format: functional;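 further: transfected HEK 293 cells stimulated with alpha-MSH peptide; potency of inhibitors of the alpha-MSH evoked signal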
[11] = luciferase reporter signal reduction – luminescence, H4-C neuroglioblastoma cells, dose response (AID 2458); format: functional, cell-based;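 further: H4 neuroglioblastoma cells stably carrying a luciferase reporter gene fusion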
[12] = LGR2 antagonists, dose response, cell-based, HEK293, CRE-luciferase reporter, cherry pick, set 2 (AID 743343); format: functional;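 further: transfected cells were stimulated with diluted bursicon conditioned medium after compound addition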
[13] = inhibitors of SNCA 5'UTR-driven reporter translation, confirmation, H4 neuroglioma cells, luminescence (AID 1988); format: functional, cell-based
[14] = HEK293 cell cytotoxicity, dose response, cytotoxicity control, plate reader, cherry-picked samples (AID 743446); format: functional, cell-based
[15] = Luminescence Cell-Based Dose Response HTS to Identify Inhibitors of 5'UTR Stem-Loop Driven Prion Protein mRNA Translation in H4 Neuroglioblastoma Cells. [Related pubchem assays: 1827 (Project Summary), 1813 (Primary HTS)]; format: functional
[16] = inhibitors of firefly luciferase expression or activity, dose response, H4 neuroglioma cells, luminescence (AID 1990); format: functional, cell-based
Protein RecA = molecular target: T3, Protein RecA (Mycobacterium tuberculosis, UniProt P9WHJ3); experiment: Fluorescence Cell-Free Homogeneous Dose Retest to Identify Inhibitors of RecA-Intein Splicing Activity. [Related pubchem assays (depositor defined):AID2097, AID2223, AID489010, AID492950]; format: functional
T3 sequence (P9WHJ3 whole entry): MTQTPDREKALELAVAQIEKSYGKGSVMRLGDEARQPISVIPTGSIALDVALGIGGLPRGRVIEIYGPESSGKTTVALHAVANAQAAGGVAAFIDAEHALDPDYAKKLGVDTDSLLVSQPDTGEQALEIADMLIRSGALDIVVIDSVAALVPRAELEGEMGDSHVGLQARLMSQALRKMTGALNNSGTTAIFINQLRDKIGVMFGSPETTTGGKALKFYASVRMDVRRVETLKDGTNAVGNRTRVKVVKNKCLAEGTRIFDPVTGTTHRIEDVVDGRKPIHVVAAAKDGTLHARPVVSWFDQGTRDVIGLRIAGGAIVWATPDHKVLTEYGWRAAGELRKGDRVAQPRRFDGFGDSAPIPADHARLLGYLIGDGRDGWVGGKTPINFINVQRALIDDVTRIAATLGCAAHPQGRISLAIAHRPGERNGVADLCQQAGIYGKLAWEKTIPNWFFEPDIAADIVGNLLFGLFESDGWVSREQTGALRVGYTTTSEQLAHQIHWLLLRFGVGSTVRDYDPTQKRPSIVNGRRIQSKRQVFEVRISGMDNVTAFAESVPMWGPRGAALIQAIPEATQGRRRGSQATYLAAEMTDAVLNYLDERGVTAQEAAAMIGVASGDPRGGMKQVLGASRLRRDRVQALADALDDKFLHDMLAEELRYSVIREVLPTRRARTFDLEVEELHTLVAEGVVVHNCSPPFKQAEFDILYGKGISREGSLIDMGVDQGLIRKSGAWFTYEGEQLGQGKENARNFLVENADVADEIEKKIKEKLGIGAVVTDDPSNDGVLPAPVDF

[17] = molecular target: T4, Long-chain-fatty-acid--AMP ligase FadD28 (Mycobacterium tuberculosis, UniProt P9WQ59); experiment: Fluorescence polarization aasay to screen for inhibitors that compete for the binding of FadD28 to a bisubstrate Measured in Biochemical System Using Plate Reader - 2147-01_Inhibitor_Dose_CherryPick_Activity.; format: functional, Mycobacterium tuberculosis H37Rv
T4 sequence (P9WQ59 whole entry): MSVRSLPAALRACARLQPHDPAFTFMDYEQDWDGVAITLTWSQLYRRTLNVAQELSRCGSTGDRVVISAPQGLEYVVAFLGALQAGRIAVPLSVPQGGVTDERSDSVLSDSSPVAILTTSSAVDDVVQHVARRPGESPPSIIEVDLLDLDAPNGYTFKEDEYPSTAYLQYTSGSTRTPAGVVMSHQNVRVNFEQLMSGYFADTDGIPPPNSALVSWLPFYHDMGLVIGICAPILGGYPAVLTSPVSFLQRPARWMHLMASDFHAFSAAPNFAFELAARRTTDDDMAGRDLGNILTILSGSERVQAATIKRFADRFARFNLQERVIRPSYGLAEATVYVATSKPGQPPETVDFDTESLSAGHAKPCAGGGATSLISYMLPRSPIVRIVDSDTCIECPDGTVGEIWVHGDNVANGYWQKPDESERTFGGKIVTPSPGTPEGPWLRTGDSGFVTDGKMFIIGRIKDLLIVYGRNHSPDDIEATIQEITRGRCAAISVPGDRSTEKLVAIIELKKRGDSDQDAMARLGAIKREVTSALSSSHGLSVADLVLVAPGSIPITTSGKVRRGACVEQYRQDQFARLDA

[18] = molecular target: T5, Replicative DNA helicase DnaB (Mycobacterium tuberculosis, UniProt P9WMR3); experiment: DnaB intein splicing inhibitors, dose response, biochemical, cell-free fluorescence (AID 449749); format: functional
T5 sequence (P9WMR3 whole entry): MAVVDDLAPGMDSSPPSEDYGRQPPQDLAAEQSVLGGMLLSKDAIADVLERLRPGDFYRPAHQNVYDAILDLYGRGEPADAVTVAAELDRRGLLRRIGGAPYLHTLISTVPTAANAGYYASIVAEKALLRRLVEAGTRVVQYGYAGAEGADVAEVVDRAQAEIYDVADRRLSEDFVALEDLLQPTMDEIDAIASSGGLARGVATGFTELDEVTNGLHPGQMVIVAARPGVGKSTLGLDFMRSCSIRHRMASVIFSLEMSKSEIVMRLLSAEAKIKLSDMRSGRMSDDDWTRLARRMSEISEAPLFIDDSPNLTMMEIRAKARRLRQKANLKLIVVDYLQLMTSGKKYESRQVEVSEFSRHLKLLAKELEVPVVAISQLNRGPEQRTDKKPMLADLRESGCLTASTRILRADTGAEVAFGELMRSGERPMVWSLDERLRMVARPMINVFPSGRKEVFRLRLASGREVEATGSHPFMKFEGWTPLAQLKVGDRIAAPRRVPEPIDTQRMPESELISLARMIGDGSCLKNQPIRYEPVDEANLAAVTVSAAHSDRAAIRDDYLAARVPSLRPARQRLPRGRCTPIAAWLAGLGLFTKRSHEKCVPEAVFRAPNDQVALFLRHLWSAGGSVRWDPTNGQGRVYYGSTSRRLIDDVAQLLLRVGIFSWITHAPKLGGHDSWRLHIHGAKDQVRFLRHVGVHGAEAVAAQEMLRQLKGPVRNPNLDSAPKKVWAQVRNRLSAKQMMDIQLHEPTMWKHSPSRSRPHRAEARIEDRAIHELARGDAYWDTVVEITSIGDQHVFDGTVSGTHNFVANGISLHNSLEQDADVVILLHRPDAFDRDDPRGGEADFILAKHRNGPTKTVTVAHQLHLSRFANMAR

Delta-type opioid receptor, sequence (P41143 whole entry): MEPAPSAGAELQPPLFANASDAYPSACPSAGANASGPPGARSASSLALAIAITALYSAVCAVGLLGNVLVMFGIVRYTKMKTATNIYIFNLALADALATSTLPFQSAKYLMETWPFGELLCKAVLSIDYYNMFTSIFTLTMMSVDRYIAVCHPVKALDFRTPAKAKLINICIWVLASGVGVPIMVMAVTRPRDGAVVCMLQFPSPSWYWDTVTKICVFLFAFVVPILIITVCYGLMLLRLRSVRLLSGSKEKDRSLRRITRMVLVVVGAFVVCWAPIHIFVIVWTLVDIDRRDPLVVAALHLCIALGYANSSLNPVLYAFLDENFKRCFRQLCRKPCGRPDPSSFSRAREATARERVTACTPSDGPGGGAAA
5-hydroxytryptamine receptor 5A, sequence (P47898 whole entry): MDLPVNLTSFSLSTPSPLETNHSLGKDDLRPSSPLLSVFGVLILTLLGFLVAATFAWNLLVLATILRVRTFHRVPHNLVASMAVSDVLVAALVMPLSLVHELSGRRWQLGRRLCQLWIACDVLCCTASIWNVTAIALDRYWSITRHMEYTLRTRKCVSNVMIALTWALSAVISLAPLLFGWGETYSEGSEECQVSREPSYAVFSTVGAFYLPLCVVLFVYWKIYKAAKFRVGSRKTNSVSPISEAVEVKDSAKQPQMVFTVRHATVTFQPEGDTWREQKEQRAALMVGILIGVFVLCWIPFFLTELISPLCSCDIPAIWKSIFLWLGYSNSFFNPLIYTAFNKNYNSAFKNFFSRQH
Mu-type opioid receptor, sequence (P35372 whole entry): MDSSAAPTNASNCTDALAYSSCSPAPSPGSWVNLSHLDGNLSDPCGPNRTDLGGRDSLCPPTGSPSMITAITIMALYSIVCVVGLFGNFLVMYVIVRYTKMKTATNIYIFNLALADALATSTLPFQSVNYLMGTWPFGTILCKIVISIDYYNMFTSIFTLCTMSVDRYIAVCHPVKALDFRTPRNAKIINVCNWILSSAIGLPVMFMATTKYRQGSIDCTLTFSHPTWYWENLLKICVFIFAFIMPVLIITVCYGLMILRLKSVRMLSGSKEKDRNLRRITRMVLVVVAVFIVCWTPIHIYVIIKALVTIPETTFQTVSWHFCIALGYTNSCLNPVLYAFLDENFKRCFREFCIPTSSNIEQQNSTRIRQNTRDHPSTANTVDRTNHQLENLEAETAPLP

Structure (SMILES)	EC50 [2]	EC50 (Mu-type opioid receptor)	EC50 [3]	AC50 (A-375)	AC50 [6]	EC50 [13]	EC50 [15]	EC50 [16]	other results
COc1ccc(C(CNC(=O)C(Cc2ccccc2)NC(N)=O)N(C)C)cc1 (configuration not stated)	> 92.5 µM (inactive)	> 92.5 µM (inactive)	> 92.5 µM (inactive)						EC50 [1]: 473 nM (active)
O=C(CCl)N(c1ccccc1)C1CCS(=O)(=O)C1 (configuration not stated)				27.7 µM (active)	9.35 µM (active)				EC50 [4]: > 120 µM (not active); CC50 [5]: 6.82 µM (active); EC50 (H4): > 120 µM (not active)
CC(=O)CSc1ccc(-c2nc3cc(C)c(C)cc3[nH]2)cn1	> 92.5 µM (inactive)	44.8 µM (inactive)	> 92.5 µM (inactive)		3.67 µM (active)	< 0.1 µM (active)	12.8 µM (active)	0.113 µM (active)	EC50 [7]: 1 µM (active); AC50 [8]: > 52 µM (inactive); EC50 (cells): > 12 µM (inconclusive); AC50 [9]: > 52 µM (inactive); AC50 [10]: 1.11 µM (active); EC50 [11]: 837 nM (active); AC50 [12]: 820 nM (active); AC50 [14]: 34.7 µM (active)
O=C1C([N-]S(=O)(=O)c2cccs2)=C([n+]2ccccc2)C(=O)c2ccccc21				25.5 µM (active)	1.07 µM (active)	> 120 µM (not active)	14.2 µM (active)	12.9 µM (active)	EC50 (Protein RecA): 6.59 µM (active); AC50 [17]: > 100 µM (inactive); AC50 [18]: 10.2 µM (active)
